Like-named read-outs stand apart in the source and are kept apart here.

Assay [1] has as its system secreted cytokines TNFα, IL-6 and KC-GRO. In words: Secreted cytokines in Lipopolysaccharide-stimulated BV-2 cells (Table 9 does not say which cytokine). The conditions noted are these: read-out: EC50. The format is cell-based, mouse.
Assay [2] relates to α-smooth muscle actin (aSMA) positive LL29 cells. In words: Inhibition of the fibrotic process: αSMA staining in TGF-β1 treated LL29 fibroblasts from IPF patients. Particulars: for inhibition at 10 µM: read-out: percentage in parentheses after EC50 >10.
The test system of assay [3] is Tau phosphorylation at Ser396 (pSer396). In words: Tau phosphorylation at Ser396 (pSer396) in SH-SY5Y cells, ELISA / western blot.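 Also: decrease in pSer396 Tau measured in lysates of treated cells by colorimetric ELISA or chemiluminescent western blot, same pSer396 antibody for both.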 Particulars: SH-SY5Y cells, overnight (16-18 h), read-out: pSer396 Tau EC50. The format is cell-based, human. Background: ELISA stands for enzyme-linked immunosorbent assay.
Experimental: Two days before treatment, cells were seeded onto 96 well plates at 5×10^4 cells/well.
The above synthesized compounds were screened using the cell assay procedure to assess decrease Tau phosphorylation at Ser396 (pSer396) described below.
Cells were lysed with RIPA buffer complemented with phosphatase and protease inhibitors then lysates were spun down at 12,000 g for 10 min to remove any cellular debris.
Assay [4] concerns SW480 colon carcinoma cells. In words: Cell viability assay (CellTiter-Glo). Particulars: for inhibition at 10 µM: SW480, read-out: percent inhibition at 10 μM.
A further assay relates to IL-6. In words: IL-6 inhibition in LPS-stimulated human peripheral blood mononuclear cells (HTRF). The conditions noted are these: for inhibition at 10 µM: read-out: percentage in parentheses after EC50 >10. Background: In TR-FRET formats the signal depends on donor and acceptor labels being close together.
The target of the next assay is GSK3β kinase (Homo sapiens, UniProt P49841). In words: GSK3β kinase activity (Ser/Thr 09 peptide Z-lyte FRET assay). Particulars: recombinant kinase, 46 μM ATP, one hour at room temperature; read-out: EC50. The format is biochemical.
For assay [5], the system named is Wnt-responsive Sp5-Luc reporter in SW480 colon carcinoma cells. In words: Screening assay for Wnt activity (Sp5-Luc reporter gene assay). The conditions noted are these: for inhibition at 10 µM: SW480, read-out: percent inhibition at 10 μM.
The target in the next assay is DYRK1A kinase (Homo sapiens, UniProt Q13627). In words: DYRK1A kinase activity (Ser/Thr 18 peptide Z-lyte FRET assay).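 Also: kinase activity read as coumarin/fluorescein emission ratio after development step, with unphosphorylated and phosphorylated peptide forms setting 0% and 100% controls, values from dose-response curves.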 The conditions noted are these: recombinant DYRK1A, 30 μM ATP, one hour at room temperature. The format is biochemical.

Chain of GSK3β kinase (P49841 whole entry): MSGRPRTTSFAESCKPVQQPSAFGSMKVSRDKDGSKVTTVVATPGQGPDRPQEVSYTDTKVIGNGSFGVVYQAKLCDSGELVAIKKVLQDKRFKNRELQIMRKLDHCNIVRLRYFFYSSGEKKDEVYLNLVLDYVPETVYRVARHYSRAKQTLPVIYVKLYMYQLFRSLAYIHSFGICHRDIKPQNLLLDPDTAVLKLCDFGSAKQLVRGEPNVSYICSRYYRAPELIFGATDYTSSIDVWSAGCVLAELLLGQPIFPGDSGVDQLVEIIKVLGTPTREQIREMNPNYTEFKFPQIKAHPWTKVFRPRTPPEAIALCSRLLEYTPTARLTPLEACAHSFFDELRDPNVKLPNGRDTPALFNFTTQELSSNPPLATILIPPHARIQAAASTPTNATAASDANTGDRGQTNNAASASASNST

Consider `Cc1ncc(-c2ccc3cnc(NC(=O)[C@H]4C[C@H](N5CCOCC5)C4)cc3n2)o1` [Compound 556, trans-N-(2-(2-Methyloxazol-5-yl)-1,6-naphthyridin-7-yl)-3-morpholinocyclobutane-1-carboxamide], for which the EC50 is 2200 nM in assay [1] (Mus musculus, BV-2, 5 h); over 10000 nM in assay [2] (Homo sapiens, Fibroblast, 96 h); 487 nM in assay [3] (Homo sapiens); over 10000 nM in assay [4] (Homo sapiens, SW480, 96 h); over 10000 nM with IL-6 (Homo sapiens, PBMC, 22 h); 86 nM on GSK3β kinase. The EC50 in assay [5] (Homo sapiens, SW480) is over 10000 nM; on DYRK1A kinase, 54 nM. The inhibition at 10 µM in assay [2] (Homo sapiens, Fibroblast) was 27.6%; in assay [4] (Homo sapiens) it was 29.4%; with IL-6 (Homo sapiens, PBMC), 4.9%; in assay [5] (Homo sapiens), 41.3%.
On to `COCCN[C@H]1CC[C@H](C(=O)Nc2cc3nc(-c4cnn(C)c4)ccc3cn2)CC1` [Compound 4536, trans-4-((2-Methoxyethyl)amino)-N-(2-(1-methyl-1H-pyrazol-4-yl)-1,6-naphthyridin-7-yl) cyclohexane-1-carboxamide], for which the EC50 is 89 nM in assay [1] (Mus musculus, BV-2, 5 h); 1140 nM in assay [2] (Homo sapiens, Fibroblast, 96 h); over 10000 nM in assay [3] (Homo sapiens); over 10000 nM in assay [4] (Homo sapiens, SW480, 96 h); 3020 nM in the assay with IL-6 (Homo sapiens, PBMC, 22 h); 319 nM on GSK3β kinase. For the same compound, the EC50 in assay [5] (Homo sapiens, SW480) came out at 832 nM; at DYRK1A kinase, 14 nM. Further, the inhibition at 10 µM in assay [4] (Homo sapiens) was 45.9%.
With `Cn1cc(-c2ccc3cnc(NC(=O)C4CCNCC4)nc3c2)cn1` [Compound 918, N-(7-(1-methyl-1H-pyrazol-4-yl)quinazolin-2-yl)piperidine-4-carboxamide], the 50% effective concentration (EC50) in assay [1] (Mus musculus, BV-2, 5 h) was over 10000 nM; in assay [2] (Homo sapiens, Fibroblast, 96 h), over 10000 nM; in assay [3] (Homo sapiens) it was over 10000 nM; in assay [4] (Homo sapiens, SW480, 96 h), over 10000 nM; in the assay with IL-6 (Homo sapiens, PBMC, 22 h) it was over 10000 nM; on GSK3β kinase, 236 nM. Further, the concentration giving a half-maximal response (EC50) in assay [5] (Homo sapiens, SW480) was over 10000 nM; on DYRK1A kinase it was 62 nM. Besides, the inhibition at 10 µM in assay [2] (Homo sapiens, Fibroblast) was found to be 31.2%; in assay [4] (Homo sapiens) it was 10.2%; with IL-6 (Homo sapiens, PBMC), 14.6%; in assay [5] (Homo sapiens), 5%.
For `Cc1cn2c(n1)CN(C(=O)Nc1cc3nc(-c4cnc(C)o4)ccc3cn1)CC2` [Compound 585, 2-Methyl-N-(2-(2-methyloxazol-5-yl)-1,6-naphthyridin-7-yl)-5,6-dihydroimidazo[1,2-a]pyrazine-7(8H)-carboxamide], the EC50 is 257 nM in assay [1] (Mus musculus, BV-2, 5 h); 2510 nM in assay [2] (Homo sapiens, Fibroblast, 96 h); 374 nM in assay [3] (Homo sapiens); 2690 nM in assay [4] (Homo sapiens, SW480, 96 h); over 10000 nM in the assay with IL-6 (Homo sapiens, PBMC, 22 h); 109 nM on GSK3β kinase. Further, the EC50 in assay [5] (Homo sapiens, SW480) came out at 2080 nM; on DYRK1A kinase it was 9 nM. Moreover, in the assay with IL-6 (Homo sapiens, PBMC), the inhibition at 10 µM amounted to 9.4%.
As for `O=C(Nc1cc2nc(-c3cnn4c3CN(CCF)CC4)ccc2cn1)C1CCC(F)(F)CC1` [Compound 317], the concentration for a half-maximal effect (EC50) is 66 nM in assay [1] (BV-2 cells, LPS 250 ng/mL 5 hours, compounds overnight, 10 μM to […], cytokine not named in Table 9); 935 nM in assay [2] (LL29 fibroblasts from IPF patients, TGF-β1 20 ng/mL, 4 days, curves from 10 μM to 0.94 nM); 35 nM in assay [3]; 3530 nM in assay [4] (SW480 cells, four days, CellTiter-Glo); over 10000 nM with IL-6 (huPBMCs, LPS 50 ng/mL, 22 hours, curves starting from 10 μM); over 10000 nM in assay [5] (SW480 Sp5-Luc reporter cells, 36 to 48 hours). The “percentage in parentheses after EC50 >10” value in the assay on IL-6 (huPBMCs, LPS, given beside >10 μM, meaning not given) is reported as 8.0%. Moreover, the “percent inhibition at 10 μM” value in assay [5] (at 10 μM, given for EC50 of >10 μM, SW480 Sp5-Luc reporter) is 50.0%.
Turning to `O=C(Nc1cc2cc(-c3cncc(NCC4(F)CNC4)n3)ncc2cn1)C1CC1` [Compound 4498, N-(6-(6-(((3-Fluoroazetidin-3-yl)methyl)amino)pyrazin-2-yl)-2,7-naphthyridin-3-yl)cyclopropanecarboxamide], the half-maximal effective concentration (EC50) stood at 436 nM in assay [2] (Homo sapiens, Fibroblast, 96 h); 37 nM in assay [3] (Homo sapiens); 799 nM in assay [4] (Homo sapiens, SW480, 96 h); 3090 nM in the assay on IL-6 (Homo sapiens, PBMC, 22 h); 1 nM at GSK3β kinase; 383 nM in assay [5] (Homo sapiens, SW480). Also, the concentration for a half-maximal effect (EC50) at DYRK1A kinase turned out to be 2 nM.
For the compound `COC1CCN(CC(=O)Nc2cc3nc(-c4cn(C)nn4)ccc3cn2)CC1` [Compound 358, 2-(4-Methoxypiperidin-1-yl)-N-(2-(1-methyl-1H-1,2,3-triazol-4-yl)-1,6-naphthyridin-7-yl)acetamide], the EC50 in assay [2] (Homo sapiens, Fibroblast, 96 h) is over 10000 nM; in assay [3] (Homo sapiens), 1500 nM; in assay [4] (Homo sapiens, SW480, 96 h) it was over 10000 nM; in the assay on IL-6 (Homo sapiens, PBMC, 22 h), over 10000 nM; on GSK3β kinase, 560 nM; in assay [5] (Homo sapiens, SW480), 189 nM. Further, the concentration giving a half-maximal response (EC50) at DYRK1A kinase was 364 nM. In addition, the inhibition at 10 µM came to 9.8% in assay [2] (Homo sapiens, Fibroblast); 38% in assay [4] (Homo sapiens); 2% in the assay on IL-6 (Homo sapiens, PBMC).
For `CC(C)CN1CCC(CC(=O)Nc2cc3cc(-c4cnn(C)c4)ncc3cn2)C1` (centres unmarked) [Compound 3749, 2-(1-Isobutylpyrrolidin-3-yl)-N-(6-(1-methyl-1H-pyrazol-4-yl)-2,7-naphthyridin-3-yl)acetamide], the EC50 was found to be 167 nM in assay [2] (Homo sapiens, Fibroblast, 96 h); 87 nM in assay [3] (Homo sapiens); 3610 nM in assay [4] (Homo sapiens, SW480, 96 h); 8800 nM with IL-6 (Homo sapiens, PBMC, 22 h); 6 nM at GSK3β kinase; 92 nM in assay [5] (Homo sapiens, SW480). Also, on DYRK1A kinase, the EC50 was found to be 10 nM.
With `CCN(CC)CC(=O)Nc1cc2cc(-c3cnn(C)c3CN3CCCCC3)ncc2cn1` [Compound 3910, 2-(Diethylamino)-N-(6-(1-methyl-5-(piperidin-1-ylmethyl)-1H-pyrazol-4-yl)-2,7-naphthyridin-3-yl)acetamide], the EC50 in assay [2] (Homo sapiens, Fibroblast, 96 h) was 1070 nM; in assay [3] (Homo sapiens), 989 nM; in assay [4] (Homo sapiens, SW480, 96 h), 3540 nM; in the assay on IL-6 (Homo sapiens, PBMC, 22 h), over 10000 nM; on GSK3β kinase, 115 nM; in assay [5] (Homo sapiens, SW480), 1240 nM. In addition, at DYRK1A kinase, the EC50 was 59 nM. Also, in the assay on IL-6 (Homo sapiens, PBMC), the inhibition at 10 µM turned out to be 4.2%.
On to `Cc1ncc(-c2ccc3cnc(NC(=O)Cn4ccnc4)cc3n2)o1` [Compound 589, 2-(1H-Imidazol-1-yl)-N-(2-(2-methyloxazol-5-yl)-1,6-naphthyridin-7-yl) acetamide], for which the EC50 is over 10000 nM in assay [2] (Homo sapiens, Fibroblast, 96 h); 10000 nM in assay [3] (Homo sapiens); over 10000 nM in assay [4] (Homo sapiens, SW480, 96 h); over 10000 nM in the assay on IL-6 (Homo sapiens, PBMC, 22 h); 156 nM on GSK3β kinase; over 10000 nM in assay [5] (Homo sapiens, SW480). The half-maximal effective concentration (EC50) on DYRK1A kinase stood at 50 nM. The inhibition at 10 µM is 41.6% in assay [2] (Homo sapiens, Fibroblast); 22.9% in assay [4] (Homo sapiens); 5.9% in the assay with IL-6 (Homo sapiens, PBMC); 7.8% in assay [5] (Homo sapiens).
As to `CC(C)OCCC(=O)Nc1ncc2ccc(-c3cncn3C)cc2n1` [Compound 1322, 3-Isopropoxy-N-(7-(1-methyl-1H-imidazol-5-yl)quinazolin-2-yl)propanamide], the EC50 is 2000 nM in assay [2] (Homo sapiens, Fibroblast, 96 h); 168 nM in assay [3] (Homo sapiens); over 10000 nM in assay [4] (Homo sapiens, SW480, 96 h); over 10000 nM in the assay on IL-6 (Homo sapiens, PBMC, 22 h); 94 nM at GSK3β kinase; 1170 nM in assay [5] (Homo sapiens, SW480). Moreover, the EC50 at DYRK1A kinase came out at 52 nM. For the same compound, the inhibition at 10 µM in assay [4] (Homo sapiens) is 22.2%; with IL-6 (Homo sapiens, PBMC), 5.9%.
`Cn1cc(-c2cc3cc(NC(=O)c4ccnc(OC5CCNCC5)c4)ncc3cn2)cn1` [Compound 3780, N-(6-(1-Methyl-1H-pyrazol-4-yl)-2,7-naphthyridin-3-yl)-2-(piperidin-4-yloxy)isonicotinamide]: the EC50 is 4760 nM in assay [2] (Homo sapiens, Fibroblast, 96 h); over 10000 nM in assay [3] (Homo sapiens); 2260 nM in assay [4] (Homo sapiens, SW480, 96 h); over 10000 nM with IL-6 (Homo sapiens, PBMC, 22 h); 275 nM at GSK3β kinase; 1530 nM in assay [5] (Homo sapiens, SW480). Also, the concentration giving a half-maximal response (EC50) on DYRK1A kinase was found to be 16 nM. For the same compound, in the assay on IL-6 (Homo sapiens, PBMC), the inhibition at 10 µM worked out at 6.7%.

One may read the EC50 as the concentration at which the effect is half-maximal.

For the origin of these results see patent US10703748B2, “Diazanaphthalen-3-yl carboxamides and preparation and use thereof” (Samumed, LLC, priority 2017, dated 2020).
